As a reminder, the inhibition is how much of the control response was suppressed. By melting point is commonly meant the temperature, or range, at which the solid turns liquid.

The target of one series is P110 δ/Pi3K δ (Homo sapiens, UniProt O00329). Put plainly: Fluorescent (HTRF) determination of PI3K enzyme activity, δ isoform. The class given is biochemical. Set-up: inhibition: dose or concentration left out as unconfirmed. The essentials:
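HTRF kit detecting PIP3 formed from PIP2 by human PI3Kδ, at room temperature. Reaction started with 400 μM ATP (addition concentration) for 30 min, then stopped, and detection mix incubated 6–18 h in the dark. Percent inhibition taken against blank and enzyme controls, and IC50 fitted.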

The next series deals with P110β (Homo sapiens, UniProt P42338). In words: Fluorescent (HTRF) determination of PI3K enzyme activity, β isoform. The format is biochemical. From the text: (§1) Assay 1: Fluorescent determination of PI3Kinase Kinase enzyme activity
(§2) Phosphoinositide 3 kinases (PI3K) belong to a class of lipid kinases that play a critical role in the regulation of several key cellular processes. The PI3K are capable of phosphorylating the 3-hydroxy position of phosphoinositols thereby generating second messengers involved in downstream signalling events. The homogenous time resolved fluorescence (HTRF) assay allows detection of 3,4,5-triphosphate (PIP3) formed as a result of phosphorylation of phosphotidylinositol 4,5-biphosphate (PIP2) by PI3K isoforms such as α, β, γ or δ.
(§3) PI3K isoform activity for α, β, γ or δ was determined using a PI3K human HTRF™ Assay Kit (Millipore, Billerica, Mass.) with modifications. All incubations were carried out at room temperature. Briefly, 0.5 μl of 40× inhibitor (in 100% DMSO) or 100% DMSO were added to each well of a 384-well black plate (Greiner Bio-One, Monroe, N.C.) containing 14.5 μl 1× reaction buffer/PIP2 (10 mM MgCl2, 5 mM DTT, 1.38 μM PIP2) mix with or without enzyme and incubated for 10 min. After the initial incubation, 5 μl/well of 400 μM ATP was added and incubated for an additional 30 minutes. Reaction was terminated by adding 5 μl/well stop solution (Millipore, Billerica, Mass.). Five microliters of detection mix (Millipore, Billerica, Mass.) were then added to each well and was incubated for 6-18 h in the dark. HRTF ratio was measured on a microplate reader (BMG Labtech., Germany) at an excitation wavelength of 337 nm and emission wavelengths of 665 and 620 nm with an integration time of […]. Data were analyzed using Graphpad Prism (Graphpad software; San Diego Calif.) for IC50 determination. Percent inhibition was calculated based on the values for the blank and enzyme controls. The results are provided below in Table 2 & 3.
On the technique in general: In TR-FRET formats the signal depends on donor and acceptor labels being close together.

The next series concerns the target P110γ (Homo sapiens, UniProt P48736). In words: Fluorescent (HTRF) determination of PI3K enzyme activity, γ isoform. The format is biochemical.
Source text: as §1, §2, §3

For the next series, the target named is P110α (Homo sapiens, UniProt P42336). Put plainly: Fluorescent (HTRF) determination of PI3K enzyme activity, α isoform. The class given is biochemical.
Source text: as §1, §2, §3

[1] abbreviates: read-out: P110 δ/Pi3K δ IC 50 nM.
Setting [2] is: read-out: P110 δ/ Pi3K δ IC 50 nM.

Like-named read-outs stand apart in the source and are kept apart here.

Chain of P110γ (P48736 whole entry, canonical isoform): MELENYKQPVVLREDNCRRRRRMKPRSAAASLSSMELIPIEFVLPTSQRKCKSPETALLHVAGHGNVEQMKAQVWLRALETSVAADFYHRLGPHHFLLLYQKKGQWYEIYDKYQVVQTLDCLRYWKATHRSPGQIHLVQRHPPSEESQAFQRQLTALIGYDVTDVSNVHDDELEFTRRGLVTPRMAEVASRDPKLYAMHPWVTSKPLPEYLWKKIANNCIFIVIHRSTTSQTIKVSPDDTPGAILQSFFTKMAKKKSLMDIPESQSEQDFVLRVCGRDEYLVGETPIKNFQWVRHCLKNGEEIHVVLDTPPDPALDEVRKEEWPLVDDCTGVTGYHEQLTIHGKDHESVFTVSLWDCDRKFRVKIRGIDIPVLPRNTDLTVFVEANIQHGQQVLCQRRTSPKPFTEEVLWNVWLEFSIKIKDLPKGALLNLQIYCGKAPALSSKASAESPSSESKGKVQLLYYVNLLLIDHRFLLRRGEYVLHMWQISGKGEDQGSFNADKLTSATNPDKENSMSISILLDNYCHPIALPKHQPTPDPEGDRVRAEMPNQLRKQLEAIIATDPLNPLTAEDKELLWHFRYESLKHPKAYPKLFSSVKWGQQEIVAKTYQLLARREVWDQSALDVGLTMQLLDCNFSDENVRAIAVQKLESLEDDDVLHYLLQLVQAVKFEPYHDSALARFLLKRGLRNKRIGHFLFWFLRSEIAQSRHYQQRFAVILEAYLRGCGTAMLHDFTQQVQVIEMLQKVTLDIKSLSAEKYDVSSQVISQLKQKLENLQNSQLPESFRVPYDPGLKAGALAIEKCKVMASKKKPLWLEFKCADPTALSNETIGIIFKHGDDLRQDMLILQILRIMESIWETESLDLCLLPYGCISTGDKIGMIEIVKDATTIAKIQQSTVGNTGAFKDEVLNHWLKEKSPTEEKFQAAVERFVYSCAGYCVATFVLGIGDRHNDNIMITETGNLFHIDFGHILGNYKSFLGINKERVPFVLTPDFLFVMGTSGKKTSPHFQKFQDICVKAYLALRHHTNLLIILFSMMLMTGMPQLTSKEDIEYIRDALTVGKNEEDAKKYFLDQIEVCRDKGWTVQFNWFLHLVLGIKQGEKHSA
Chain of P110α (P42336 whole entry, canonical isoform): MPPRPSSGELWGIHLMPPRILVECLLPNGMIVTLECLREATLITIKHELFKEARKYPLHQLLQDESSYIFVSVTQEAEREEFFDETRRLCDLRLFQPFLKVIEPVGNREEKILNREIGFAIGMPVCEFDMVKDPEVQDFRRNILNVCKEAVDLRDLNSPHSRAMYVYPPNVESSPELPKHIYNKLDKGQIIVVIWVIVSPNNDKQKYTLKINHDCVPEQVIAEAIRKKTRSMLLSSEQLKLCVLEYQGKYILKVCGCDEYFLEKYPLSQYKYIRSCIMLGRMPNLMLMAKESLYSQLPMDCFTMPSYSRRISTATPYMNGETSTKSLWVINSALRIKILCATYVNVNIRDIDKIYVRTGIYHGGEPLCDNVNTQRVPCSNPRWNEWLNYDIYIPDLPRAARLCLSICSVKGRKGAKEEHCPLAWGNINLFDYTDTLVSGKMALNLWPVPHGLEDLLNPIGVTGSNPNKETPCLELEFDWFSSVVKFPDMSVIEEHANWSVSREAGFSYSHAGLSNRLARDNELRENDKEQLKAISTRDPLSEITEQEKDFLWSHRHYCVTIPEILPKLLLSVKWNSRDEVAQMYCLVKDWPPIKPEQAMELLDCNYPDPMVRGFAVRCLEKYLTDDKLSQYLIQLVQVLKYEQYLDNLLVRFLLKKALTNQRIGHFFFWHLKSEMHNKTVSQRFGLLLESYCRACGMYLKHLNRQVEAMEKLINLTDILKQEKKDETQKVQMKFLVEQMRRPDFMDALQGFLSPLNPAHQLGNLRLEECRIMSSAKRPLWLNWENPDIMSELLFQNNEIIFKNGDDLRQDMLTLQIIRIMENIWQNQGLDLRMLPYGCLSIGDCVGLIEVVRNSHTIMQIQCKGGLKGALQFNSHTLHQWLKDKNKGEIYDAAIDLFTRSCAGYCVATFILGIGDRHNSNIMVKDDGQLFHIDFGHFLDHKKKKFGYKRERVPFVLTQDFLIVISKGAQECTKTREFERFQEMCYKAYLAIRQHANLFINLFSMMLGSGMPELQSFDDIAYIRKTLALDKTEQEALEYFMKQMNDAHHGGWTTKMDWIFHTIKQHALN
Chain of P110α (P27986 whole entry partner, canonical isoform): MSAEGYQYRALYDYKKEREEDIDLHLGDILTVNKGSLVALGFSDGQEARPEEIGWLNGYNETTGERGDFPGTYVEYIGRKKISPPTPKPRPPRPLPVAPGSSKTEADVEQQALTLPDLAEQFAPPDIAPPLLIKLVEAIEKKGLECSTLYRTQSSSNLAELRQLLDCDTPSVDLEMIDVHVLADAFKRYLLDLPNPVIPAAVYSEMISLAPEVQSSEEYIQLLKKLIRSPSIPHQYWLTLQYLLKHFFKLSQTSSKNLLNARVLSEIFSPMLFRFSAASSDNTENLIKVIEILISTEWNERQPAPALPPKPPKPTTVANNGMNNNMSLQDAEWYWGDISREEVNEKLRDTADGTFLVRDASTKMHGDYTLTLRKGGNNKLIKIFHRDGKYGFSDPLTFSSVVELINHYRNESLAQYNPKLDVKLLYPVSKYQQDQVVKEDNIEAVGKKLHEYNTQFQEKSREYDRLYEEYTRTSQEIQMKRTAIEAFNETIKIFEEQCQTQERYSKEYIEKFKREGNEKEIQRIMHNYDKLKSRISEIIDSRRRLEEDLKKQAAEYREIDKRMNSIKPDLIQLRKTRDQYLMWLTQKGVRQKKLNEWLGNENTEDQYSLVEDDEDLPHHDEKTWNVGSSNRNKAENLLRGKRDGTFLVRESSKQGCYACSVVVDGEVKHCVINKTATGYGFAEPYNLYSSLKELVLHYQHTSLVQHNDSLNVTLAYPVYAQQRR
Chain of P110 δ/Pi3K δ (O00329 whole entry, canonical isoform): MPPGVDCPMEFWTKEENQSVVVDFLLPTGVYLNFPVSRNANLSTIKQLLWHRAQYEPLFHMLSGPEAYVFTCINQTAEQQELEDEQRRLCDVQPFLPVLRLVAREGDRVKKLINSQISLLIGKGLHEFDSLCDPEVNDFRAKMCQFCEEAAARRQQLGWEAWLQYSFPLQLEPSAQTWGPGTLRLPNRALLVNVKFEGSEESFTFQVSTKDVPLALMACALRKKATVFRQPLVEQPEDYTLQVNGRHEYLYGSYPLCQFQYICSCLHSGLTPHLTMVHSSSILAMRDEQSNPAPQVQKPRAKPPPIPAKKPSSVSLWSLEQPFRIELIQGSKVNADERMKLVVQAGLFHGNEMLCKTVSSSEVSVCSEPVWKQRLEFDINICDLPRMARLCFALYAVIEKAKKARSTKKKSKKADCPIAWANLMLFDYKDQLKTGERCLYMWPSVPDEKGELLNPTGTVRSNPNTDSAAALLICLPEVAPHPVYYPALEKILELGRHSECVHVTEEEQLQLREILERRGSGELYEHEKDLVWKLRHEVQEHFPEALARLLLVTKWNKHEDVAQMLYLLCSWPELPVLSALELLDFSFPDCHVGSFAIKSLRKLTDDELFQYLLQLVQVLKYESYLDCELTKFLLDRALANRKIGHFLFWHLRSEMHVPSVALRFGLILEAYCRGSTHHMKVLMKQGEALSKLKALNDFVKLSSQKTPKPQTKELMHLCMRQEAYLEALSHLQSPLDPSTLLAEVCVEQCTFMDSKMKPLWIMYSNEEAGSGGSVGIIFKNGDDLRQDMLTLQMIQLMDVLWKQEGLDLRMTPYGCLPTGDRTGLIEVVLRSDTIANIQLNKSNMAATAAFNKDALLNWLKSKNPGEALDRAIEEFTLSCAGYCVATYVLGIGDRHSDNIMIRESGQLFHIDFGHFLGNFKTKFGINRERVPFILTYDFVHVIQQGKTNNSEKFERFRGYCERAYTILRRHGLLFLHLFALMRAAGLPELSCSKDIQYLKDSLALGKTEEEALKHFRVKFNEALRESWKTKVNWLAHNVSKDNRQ
Chain of P110 δ/Pi3K δ (P27986 whole entry partner, canonical isoform): as the sequence (P27986 whole entry partner, canonical isoform) above
Chain of P110β (P42338 whole entry, canonical isoform): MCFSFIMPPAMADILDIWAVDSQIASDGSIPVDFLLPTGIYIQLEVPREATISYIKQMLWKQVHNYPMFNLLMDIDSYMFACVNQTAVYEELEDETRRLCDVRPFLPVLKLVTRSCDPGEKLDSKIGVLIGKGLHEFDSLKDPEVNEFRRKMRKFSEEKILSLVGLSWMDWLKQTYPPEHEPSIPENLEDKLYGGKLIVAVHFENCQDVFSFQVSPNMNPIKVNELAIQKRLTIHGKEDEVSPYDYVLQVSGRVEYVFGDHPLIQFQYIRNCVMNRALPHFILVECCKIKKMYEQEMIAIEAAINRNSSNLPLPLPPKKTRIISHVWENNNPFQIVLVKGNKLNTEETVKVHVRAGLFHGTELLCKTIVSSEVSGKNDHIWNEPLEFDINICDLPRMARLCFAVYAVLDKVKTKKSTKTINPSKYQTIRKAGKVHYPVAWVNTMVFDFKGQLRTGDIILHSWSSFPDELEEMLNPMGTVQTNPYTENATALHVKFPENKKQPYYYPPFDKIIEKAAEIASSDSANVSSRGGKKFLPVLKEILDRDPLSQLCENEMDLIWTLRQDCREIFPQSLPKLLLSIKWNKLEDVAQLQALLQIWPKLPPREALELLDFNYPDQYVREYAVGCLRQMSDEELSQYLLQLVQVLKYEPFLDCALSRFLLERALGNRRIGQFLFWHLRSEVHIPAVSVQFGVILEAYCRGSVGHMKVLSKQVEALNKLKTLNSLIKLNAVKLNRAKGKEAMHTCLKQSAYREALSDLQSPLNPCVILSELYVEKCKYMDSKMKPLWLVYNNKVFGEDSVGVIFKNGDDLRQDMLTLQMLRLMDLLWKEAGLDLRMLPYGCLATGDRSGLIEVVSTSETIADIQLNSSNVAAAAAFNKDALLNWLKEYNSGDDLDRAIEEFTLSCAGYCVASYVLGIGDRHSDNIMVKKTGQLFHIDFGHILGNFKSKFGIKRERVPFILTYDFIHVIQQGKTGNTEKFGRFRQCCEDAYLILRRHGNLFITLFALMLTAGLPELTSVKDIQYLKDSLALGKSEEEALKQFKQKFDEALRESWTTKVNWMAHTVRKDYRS
Chain of P110β (P27986 whole entry partner, canonical isoform): as the sequence (P27986 whole entry partner, canonical isoform) above

As to `C[C@H](Nc1ncnc2[nH]cnc12)c1oc2ccc(F)cc2c(=O)c1-c1cccc(F)c1` [Example 74, (S)-2-(1-(9H-purin-6-ylamino)ethyl)-6-fluoro-3-(3-fluorophenyl)-4H-chromen-4-one], the melting point lay within 203 to 206 °C. Moreover, at P110 δ/Pi3K δ, the inhibition at 1 µM fell in the range of 50 to 100%. The IC50 on P110 δ/Pi3K δ (setting [1]) is less than 250 nM. Also, at P110β, the inhibition at 1 µM was in the range of 25 to 50%. Further, the inhibition at 1 µM on P110γ was in the range of 25 to 50%.
Compound `CC(c1oc2ccccc2c(=O)c1-c1cccc(F)c1)n1nc(-c2cccc(N(C)C)c2)c2c(N)ncnc21` (stereo not shown) [Example 142, 2-(1-(4-amino-3-(3-(dimethylamino)phenyl)-1H-pyrazolo[3,4-d]pyrimidin-1-yl)ethyl)-3-(3-fluorophenyl)-4H-chromen-4-one] had a melting point of 218 to 220 °C. The inhibition against P110 δ/Pi3K δ was less than 50%. At P110β, this compound showed an inhibition at 1 µM of 25 to 50%. At P110γ, the inhibition at 1 µM was less than 25%.
As to `CCOc1ccc(-c2nn(C(C)c3oc4ccccc4c(=O)c3-c3cccc(F)c3)c3ncnc(N)c23)cc1F` (stereo not shown) [Example 143, 2-(1-(4-amino-3-(4-ethoxy-3-fluorophenyl)-1H-pyrazolo[3,4-d]pyrimidin-1-yl)ethyl)-3-(3-fluorophenyl)-4H-chromen-4-one], the melting point was in the range of 216 to 218 °C. This compound also returned an inhibition against P110 δ/Pi3K δ of less than 50%. The compound also returned an inhibition at 1 µM at P110β of 25 to 50%. The inhibition at 1 µM on P110γ was less than 25%.
For `CCc1n[nH]c2cc(-c3nn(C(C)c4oc5ccccc5c(=O)c4-c4cccc(F)c4)c4ncnc(N)c34)ccc12` (stereo not shown) [Example 110, 2-(1-(4-amino-3-(3-ethyl-1H-indazol-6-yl)-1H-pyrazolo[3,4-d]pyrimidin-1-yl)ethyl)-3-(3-fluorophenyl)-4H-chromen-4-one] the same measures were 270 to 273 °C, 50 to 100%, less than 25% and 50 to 100%.
In turn, `Cc1n[nH]c2cc(-c3nn(C(C)c4oc5ccc(F)cc5c(=O)c4-c4ccccc4)c4ncnc(N)c34)ccc12` (stereo not shown) [Example 105, 2-(1-(4-amino-3-(3-methyl-1H-indazol-6-yl)-1H-pyrazolo[3,4-d]pyrimidin-1-yl)ethyl)-6-fluoro-3-phenyl-4H-chromen-4-one] registered a melting point of 253 to 255 °C. At P110 δ/Pi3K δ, this compound gave an inhibition of 50 to 100%. At P110 δ/Pi3K δ (setting [2]), the IC50 was less than 250 nM. This compound also gave an inhibition at 1 µM at P110β of 50 to 100%. Moreover, the inhibition at 1 µM against P110γ fell in the range of 50 to 100%.
As for `COc1cccc(-c2nn(C(C)c3oc4ccccc4c(=O)c3-c3cccc(F)c3)c3ncnc(N)c23)c1` (stereo not shown) [Example 51, 2-(1-(4-amino-3-(3-methoxyphenyl)-1H-pyrazolo[3,4-d]pyrimidin-1-yl)ethyl)-3-(3-fluorophenyl)-4H-chromen-4-one], the inhibition at 1 µM on P110α is less than 25%; on P110β, 50 to 100%; on P110γ it was less than 25%.
Turning to `CC(c1oc2ccccc2c(=O)c1-c1cccc(F)c1)n1cnc2c(N)ncnc21` (stereo not shown) [Example 32, 2-(1-(6-Amino-9H-purin-9-yl)ethyl)-3-(3-fluorophenyl)-4H-chromen-4-one], the inhibition at 1 µM was 50 to 100% against P110 δ/Pi3K δ, less than 25% on P110α, less than 25% on P110β and less than 25% at P110γ. Also, the IC50 on P110 δ/Pi3K δ (setting [1]) was less than 250 nM.
The compound `CC(c1oc2ccccc2c(=O)c1-c1cccc(F)c1)n1nc(-c2ccc(OCc3ccccc3)c(Cl)c2)c2c(N)ncnc21` (stereo not shown) [Example 140, 2-(1-(4-amino-3-(4-(benzyloxy)-3-chlorophenyl)-1H-pyrazolo[3,4-d]pyrimidin-1-yl)ethyl)-3-(3-fluorophenyl)-4H-chromen-4-one] returned a melting point of 214 to 216 °C. This compound returned an inhibition at P110 δ/Pi3K δ of less than 50%. In addition, on P110β, the inhibition at 1 µM was 25 to 50%. At P110γ, this compound registered an inhibition at 1 µM of 25 to 50%.
With `CC(c1oc2ccccc2c(=O)c1-c1cccc(F)c1)n1nc(-c2ccc(Oc3ccccc3)cc2)c2c(N)ncnc21` (stereo not shown) [Example 139, 2-(1-(4-amino-3-(4-phenoxyphenyl)-1H-pyrazolo[3,4-d]pyrimidin-1-yl)ethyl)-3-(3-fluorophenyl)-4H-chromen-4-one], the melting point fell in the range of 218 to 220 °C. At P110 δ/Pi3K δ, the inhibition is less than 50%. The inhibition at 1 µM on P110β lay within 25 to 50%. This compound also registered an inhibition at 1 µM against P110γ of 25 to 50%.
Take `Cc1n[nH]c2ccc(-c3nn(C(C)c4oc5ccccc5c(=O)c4-c4cccc(F)c4)c4ncnc(N)c34)cc12` (stereo not shown) [Example 106, 2-(1-(4-amino-3-(3-methyl-1H-indazol-5-yl)-1H-pyrazolo[3,4-d]pyrimidin-1-yl)ethyl)-3-(3-fluorophenyl)-4H-chromen-4-one]: the melting point lay in the range of 254 to 256 °C. On P110 δ/Pi3K δ, this compound returned an inhibition of less than 50%. On P110β, this compound showed an inhibition at 1 µM of less than 25%. This compound also came in with an inhibition at 1 µM against P110γ of 25 to 50%.
For the compound `CC(C)Oc1ccc(-c2nn(C(C)c3oc4ccccc4c(=O)c3-c3cccc(F)c3)c3ncnc(N)c23)cc1Cl` (stereo not shown) [Example 141, 2-(1-(4-amino-3-(3-chloro-4-isopropoxyphenyl)-1H-pyrazolo[3,4-d]pyrimidin-1-yl)ethyl)-3-(3-fluorophenyl)-4H-chromen-4-one], the melting point lay in the range of 198 to 200 °C. The same compound returned an inhibition against P110 δ/Pi3K δ of 50 to 100%. Also, the inhibition at 1 µM at P110β was in the range of 25 to 50%. The inhibition at 1 µM against P110γ lay within 50 to 100%.
Consider `Nc1ncnc2c1ncn2Cc1oc2ccc(Br)cc2c(=O)c1-c1ccccc1` [Example 1, 2-[(6-Amino-9H-purin-9-yl)methyl]-6-bromo-3-phenyl-4H-chromen-4-one], for which the melting point lay in the range of 207 to 209 °C. Further, at P110 δ/Pi3K δ, the inhibition at 1 µM is less than 50%. At P110 δ/Pi3K δ (setting [1]), the IC50 was less than 250 nM. At P110α, this compound returned an inhibition at 1 µM of less than 25%. On P110β, this compound returned an inhibition at 1 µM of less than 25%.
Compound `C[C@H](Nc1ncnc2[nH]cnc12)c1oc2ccc(F)cc2c(=O)c1-c1ccccc1` [Example 57, (S)-2-(1-(9H-purin-6-ylamino)ethyl)-6-fluoro-3-phenyl-4H-chromen-4-one] came in with a melting point of 196 to 198 °C. This compound also returned an inhibition at 1 µM on P110 δ/Pi3K δ of 50 to 100%. The IC50 at P110 δ/Pi3K δ (setting [1]) was less than 250 nM. Also, the inhibition at 1 µM against P110α is less than 25%. The inhibition at 1 µM at P110β lay in the range of 25 to 50%.
Turning to `Nc1ncnc2c1c(-c1cn[nH]c1)nn2Cc1oc2ccc(F)cc2c(=O)c1-c1ccccc1` [Example 125, 2-((4-amino-3-(1H-pyrazol-4-yl)-1H-pyrazolo[3,4-d]pyrimidin-1-yl)methyl)-6-fluoro-3-phenyl-4H-chromen-4-one], the melting point lay in the range of 211 to 214 °C. The same compound showed an inhibition at P110 δ/Pi3K δ of less than 50%. The compound also came in with an inhibition at 1 µM at P110α of less than 25%. Moreover, the inhibition at 1 µM against P110β was less than 25%.
The compound `COc1cc(OC)cc(-c2nn(C(C)c3oc4ccccc4c(=O)c3-c3cccc(F)c3)c3ncnc(N)c23)c1` (stereo not shown) [Example 130, 2-(1-(4-amino-3-(3,5-dimethoxyphenyl)-1H-pyrazolo[3,4-d]pyrimidin-1-yl)ethyl)-3-(3-fluorophenyl)-4H-chromen-4-one] registered a melting point of 224 to 227 °C. Moreover, at P110 δ/Pi3K δ, the inhibition was less than 50%. On P110α, the inhibition at 1 µM was less than 25%. The inhibition at 1 µM against P110β was less than 25%.
`Cc1n[nH]c2cc(-c3nn(C(C)c4oc5ccc(F)cc5c(=O)c4-c4cccc(F)c4)c4ncnc(N)c34)ccc12` (stereo not shown) [Example 108, 2-(1-(4-amino-3-(3-methyl-1H-indazol-6-yl)-1H-pyrazolo[3,4-d]pyrimidin-1-yl)ethyl)-6-fluoro-3-(3-fluorophenyl)-4H-chromen-4-one] displayed a melting point of 234 to 236 °C. The inhibition on P110 δ/Pi3K δ fell in the range of 50 to 100%. Also, on P110 δ/Pi3K δ (setting [2]), the IC50 was less than 250 nM. In addition, the inhibition at 1 µM at P110β lay in the range of 25 to 50%. The inhibition at 1 µM against P110γ is 50 to 100%.
`CC(c1oc2ccccc2c(=O)c1-c1cccc(F)c1)n1nc(-c2ccc3c(c2)OCCO3)c2c(N)ncnc21` (stereo not shown) [Example 133, 2-(1-(4-amino-3-(2,3-dihydrobenzo[b][1,4]dioxin-6-yl)-1H-pyrazolo[3,4-d]pyrimidin-1-yl)ethyl)-3-(3-fluorophenyl)-4H-chromen-4-one] registered a melting point of 225 to 226 °C. The compound further showed an inhibition on P110 δ/Pi3K δ of less than 50%. The inhibition at 1 µM at P110α was less than 25%. This compound also yielded an inhibition at 1 µM at P110β of 50 to 100%.

For the origin of these results see US9421209B2, “Kinase modulators” (Rhizen Pharmaceuticals SA, priority 2009, dated 2016).
